Assay results: PMC5321639, “Design and pharmacodynamics of recombinant NZ2114 histidine mutants with improved activity against methicillin-resistant Staphylococcus aureus” (AMB Express, 2017)
Values after ≈ are worked out from the molar mass of the structure shown. Values joined by “and” are separate entries in the source; they are usually repeats but may differ in a detail not shown here. Equal entries are not always repeated. Where a SMILES comes first, the peptide text is derived from it. Bridges are numbered along the chain shown (N, C = ends).

Columns and labels:
[1] = system: S. aureus ATCC43300; experiment: Effect of NaCl concentration on activity (MIC); format: cell-based, Staphylococcus aureus
Method: (§1) The peptide solutions were diluted twofold with the range of final concentrations were 0.015–32 µg/ml (0.003–7.273 µM) for purified H1, H2, H3, H6, and H8. The test strains were grown in MHB medium at 37 °C to an OD600 of 0.4 and diluted to 1 × 10^5 CFU/ml. The 10 µl peptide and 90 µl cell suspension were added into each well. All assays were performed in triplicate. The antimicrobial activity of NZ2114 and vancomycin were tested as positive controls. The plates were incubated at 37 °C for 18–24 h. MIC was defined as the lowest peptide concentration of ones at which there was no visible growth (Tian et al. [2009]).
(§2) The effect of pH, temperature, NaCl concentration and proteinase on the activity of peptides was evaluated. Peptides were diluted twofold, then adjusted to a pH range from 2.0 to 10.0 and incubated at 37 °C for 4 h. The thermal stability of purified peptides was determined after 1-h incubation of peptides at 4, 20, 40, 60, 80 and 100 °C in deionized water, respectively. Aliquots of peptides were incubated in various proteinases solutions [pepsin (pH 2.0), trypsin (pH 8.0), proteinase K (pH 7.0)] at a ratio of 1:10, w/w (proteinase: peptide) at 37 °C for 3 h. For the ion stability, peptides were incubated in 50, 100, 200, 300, 400, 500 mM sodium chloride solutions, respectively. Other methods and conditions were prepared as the MIC assay described above (Li et al. [2015]; Qu et al. [2016]).

[2] = system: S. aureus ATCC43300; experiment: microbe, parasite or virus in culture; format: cell-based, Staphylococcus aureus; details: for MICc (MIC of the most effective combination): checkerboard
Method: The MIC values of four antibiotics (vancomycin, ampicillin, rifampicin and ciprofloxacin) to S. aureus ATCC43300 were tested as the MIC assay described above. The peptide solutions and antibiotics were diluted twofold with the final concentrations ranging from 1/16 to 8× MIC, and added into 96-well plates in a checkerboard fashion (White et al. [1996]). The results of combination were evaluated by calculating the fractional inhibitory concentration index (FICI) of each combination. FIC of H1, H2, H3=MIC of H1, H2, H3, respectively, in combination with antibiotic/MIC of H1, H2, H3 alone; FIC of antibiotics=MIC of antibiotic in combination with peptide/MIC of antibiotic alone; FICI = FIC of H1, H2, H3+ antibiotic, respectively. The result of interaction between two antimicrobial drugs was determined according to: FICI ≤ 0.5 refers to synergy, 0.5 < FICI ≤ 1 refers to additivity, 1 < FICI ≤ 4 refers to indifference, and FICI > 4 is defined as antagonism (Tsuji and Rybak [2006]).

[3] = system: mice red blood cells; experiment: Hemolytic assay; format: cell-based; details: 0.23 to 7.27 μM (1–32 μg/ml), 37 °C 1 h
Method: The mice blood cells were washed three times in stroke-physiological saline solution (0.9% NaCl) and centrifuged at 4 °C, 2000 rpm for 5 min. A 50-μl cell was diluted to 8% (v/v), added into 96-well plates, and mixed with 50-μl peptide to the final concentrations ranging from […]. The plates were incubated at 37 °C for 1 h, and centrifuged at 4 °C, 5000 rpm for 5 min. The absorbance of supernatants was measured at 540 nm, and 0 and 100% hemolysis was measured by 0.9% NaCl and 0.1% Triton X-100, respectively. The hemolysis percentages were calculated by the following equation: [(Abs540 nm in H1, H2, H3 solution − Abs540 nm in 0.9% NaCl)/(Abs540 nm in 0.1% Triton X-100 − Abs540 nm in 0.9% NaCl)] ×100% (Jiao et al. [2015]).

[4] = system: S. aureus ATCC43300; experiment: Effect of pH on activity (MIC); format: cell-based, Staphylococcus aureus; details: then MIC assay
Method: as §1, §2

[5] = system: S. aureus ATCC43300; experiment: Effect of temperature on activity (MIC); format: cell-based, Staphylococcus aureus; details: then MIC assay
Method: as §1, §2

[6] = system: S. aureus ATCC43300; experiment: Postantibiotic effect (PAE); format: cell-based, Staphylococcus aureus; details: 2 h exposure at 37 °C, 1 × 10^8 CFU/ml, drug removed by 1:10^3 dilution, mean ± SD, n = 3
Method: After 2 h, the drug was removed by diluting 1:10^3 into the MHB and incubated at 37 °C, 250 rpm. The sample was taken to plate counting every 1 h until the bacterial cultures become turbid. The PAE was calculated by the following formula: PAE = T − C, where T is the time needed for the count of CFU in the test culture to increase 1 log10 (10-fold) above the 0 h and C is the time needed for the count of CFU in the untreated control culture to increase 1 log10 above the 0 h (Giguère et al. [2012]).

[7] = system: S. aureus ATCC43300 (MRSA); experiment: Time-kill curve assay; format: cell-based, Staphylococcus aureus; details: 1× MIC
Method: Bacterial culture (S. aureus ATCC43300) was diluted to 1 × 10^5 CFU/ml and H1, H2, and H3 were added. […] The mixture was cultivated at 250 rpm, 37 °C. The 100-µl samples were taken from each flask at 0, 2, 4, 6, 8, 12 and 24 h of incubation, and serial dilutions of samples were plated to count visible colonies. Vancomycin was tested in the same way as a positive control and the culture without antimicrobial agent as a negative control (Xiong et al. [2011]). All experiments were performed in triplicate.

[8] = system: S. aureus ATCC43300; experiment: Effect of proteinases on activity (MIC); format: cell-based, Staphylococcus aureus; details: 1:10 w/w proteinase:peptide, 37 °C for 3 h, then MIC assay
Method: as §1, §2

With `CC[C@H](C)[C@@H]1NC(=O)[C@H](CO)NC(=O)[C@H](CCCCN)NC(=O)[C@@H]2CSSC[C@@H](C(=O)N[C@@H](Cc3ccc(O)cc3)C(=O)O)NC(=O)[C@H](CCCCN)NC(=O)[C@@H]3CSSC[C@H](NC(=O)[C@H](CCCNC(=N)N)NC(=O)[C@H](CC(C)C)NC(=O)[C@H](CC(=O)O)NC(=O)[C@H](CC(=O)O)NC(=O)[C@H](CCC(=O)O)NC(=O)[C@H](CC(N)=O)NC(=O)[C@H](Cc4c[nH]c5ccccc45)NC(=O)[C@@H]4CCCN4C(=O)CNC(=O)[C@H](CC(N)=O)NC(=O)[C@@H](NC(=O)CNC(=O)[C@H](Cc4ccccc4)NC(=O)CN)CSSC[C@H](NC(=O)[C@H](Cc4ccc(O)cc4)NC(=O)CNC(=O)CNC(=O)[C@H](CCCCN)NC(=O)[C@H](Cc4ccc(O)cc4)NC(=O)CNC(=O)[C@H](CCCCN)NC1=O)C(=O)N[C@@H](C)C(=O)N[C@@H](CCCCN)C(=O)NCC(=O)NCC(=O)N[C@@H](Cc1ccccc1)C(=O)N[C@@H](C(C)C)C(=O)N3)C(=O)N[C@@H](Cc1c[nH]cn1)C(=O)N[C@@H](CC(N)=O)C(=O)N[C@@H](CCCCN)C(=O)N2` [H3] (H-GFGCNGPWNEDDLRCHNKCKSIKGYKGGYCAKGGFVCKCY-OH; disulfide 4-30, 15-37, 19-39 (inferred); N-terminus and C-terminus assumed) the “MIC in 50 mM NaCl” value ([1]; incubated in 50 mM sodium chloride solution) was 0.057 µM (≈ 0.251 µg/mL), the “MIC in 100 mM NaCl” value ([1]; incubated in 100 mM sodium chloride solution) was 0.057 µM (≈ 0.251 µg/mL) and the “MIC in 200 mM NaCl” value ([1]; incubated in 200 mM sodium chloride solution) was 0.057 µM (≈ 0.251 µg/mL). The “MIC in 300 mM NaCl” value ([1]; incubated in 300 mM sodium chloride solution) was 0.057 µM (≈ 0.251 µg/mL), the “MIC in 400 mM NaCl” value ([1]; incubated in 400 mM sodium chloride solution) was 0.114 µM (≈ 0.502 µg/mL) and the “MICc (MIC of the most effective combination)” value (shortened to “MICc”) ([2]; in combination with ampicillin) was 0.056 µM. The “MICc” value ([2]; in combination with ciprofloxacin) was 0.056 µM, the “MICc” value ([2]; in combination with rifampicin) was 0.056 µM and the “MICc” value ([2]; in combination with vancomycin) was 0.028 µM. The MIC ([2]; drug alone, read-out: MICa (MIC of drug alone)) was 0.056 µM, the hemolytic activity [3] was “little or no hemolytic activity” and the “MIC after incubation at pH2” value ([4]; pH 2, 37 °C for 4 h) was 0.057 μM. The “MIC after incubation at pH4” value ([4]; pH 4, 37 °C for 4 h) was 0.057 μM, the “MIC after incubation at pH6” value ([4]; pH 6, 37 °C for 4 h) was 0.114 μM and the “MIC after incubation at pH8” value ([4]; pH 8, 37 °C for 4 h) was 0.057 μM. For the same molecule, the “MIC after incubation at pH10” value ([4]; pH 10, 37 °C for 4 h) was 0.057 μM, the “MIC after incubation at 4 °C” value ([5]; 1 h at 4 °C in deionized water) was 0.057 µM (≈ 0.251 µg/mL) and the “MIC after incubation at 20 °C” value ([5]; 1 h at 20 °C in deionized water) was 0.057 µM (≈ 0.251 µg/mL). The “MIC after incubation at 40 °C” value ([5]; 1 h at 40 °C in deionized water) was 0.057 µM (≈ 0.251 µg/mL), the “MIC after incubation at 60 °C” value ([5]; 1 h at 60 °C in deionized water) was 0.057 µM (≈ 0.251 µg/mL) and the “MIC after incubation at 80 °C” value ([5]; 1 h at 80 °C in deionized water) was 0.057 µM (≈ 0.251 µg/mL). For the same molecule, the “MIC after incubation at 100 °C” value ([5]; 1 h at 100 °C in deionized water) was 0.114 µM (≈ 0.502 µg/mL), the PAE ([6]; 1× MIC) was 0.55 h and 0.55 ± 0.13 h and the PAE ([6]; 2× MIC) was 1.55 ± 0.07 h. For the same molecule, the “incubation time after which regrowth occurred” value [7] was 8 h, the “MIC after Pepsin” value ([8]; pepsin (pH 2.0)) was 0.057 µM (≈ 0.251 µg/mL) and the “MIC after Proteinase K” value ([8]; proteinase K (pH 7.0)) was 0.114 µM (≈ 0.502 µg/mL). For the same molecule, the “MIC after Trypsin” value ([8]; trypsin (pH 8.0)) was 0.057 µM (≈ 0.251 µg/mL).
